Earlier results, collected in patent US6528539B1, “Stable formulation containing fumagillin” (Sanofi-Synthelabo, priority 1999, dated 2003).

Conditions: fumagillin as such; must be stored at −80° C.; literature studies named in b6

## COC1C(OC(=O)/C=C/C=C/C=C/C=C/C(=O)O)CCC2(CO2)C1[C@@]1(C)O[C@@H]1CC=C(C)C (stereo in doubt) [Fumagillin, 2,4,6,8-decatetraenedioic acid mono[4-(1,2-epoxy-1,5-dimethyl-4-hexenyl)-5-methoxy-1-oxaspiro[2.5]oct-6-yl] ester]
  stability at ambient temperature: highly unstable at ambient temperature
